In paper PMC10617776, “Bi-steric mTORC1 inhibitors induce apoptotic cell death in tumor models with hyperactivated mTORC1” (The Journal of Clinical Investigation, 2023):

What was measured:
[1] = system: T1, 855T Tsc1-; assay: cells; parameters: cell proliferation by crystal violet staining, absorbance 540 nm; conditions: 72 h
T1 construct: Tsc1-null

[2] = system: T2, 97-1 TSC1+; assay: cells; parameters: cell proliferation by crystal violet staining, absorbance 540 nm; conditions: 72 h
T2 construct: TSC1 add-back

[3] = system: T3, 97-1 TSC1-; assay: cells; parameters: cell proliferation by crystal violet staining, absorbance 540 nm; conditions: 72 h
T3 construct: TSC1-null

[4] = system: T4, RT4 TSC1-; assay: cells; parameters: cell proliferation by crystal violet staining, absorbance 540 nm; conditions: 72 h
T4 construct: TSC1-null

[5] = system: T5, 634T Tsc1-; assay: cells; parameters: cell proliferation by crystal violet staining, absorbance 540 nm; conditions: 72 h
T5 construct: Tsc1-null

[6] = system: T6, KTP-267-1B1 Tsc1-; assay: cells; parameters: cell proliferation by crystal violet staining, absorbance 540 nm; conditions: 72 h
T6 construct: Tsc1-null
Experimental: (§1) The effect of the compounds on cell proliferation was measured by crystal violet staining. Cells were plated in 96-well plates at a density of 500–2,000 cells (sextuples per condition). The next day, cells were treated with concentrations (0–100 nM) prepared by serial dilution. After 3 days of treatment, cells were fixed by 10% formalin for 10 minutes at room temperature. 0.05% crystal violet solution was added and incubated for 15 minutes at room temperature. Absorbance was read using Synergy HT (BioTek) at 540 nm. The inhibition curves and IC50 values were calculated by GraphPad Prism 9.0. TSC1-null HCV29 (BLCA cell line) and its TSC1–add-back derivative were treated with rapamycin, MLN0128, and bi-steric mTORC1 inhibitors.

[7] = system: T7, HCV29 TSC1-; assay: cells; parameters: cell proliferation by crystal violet staining, absorbance 540 nm; conditions: HCV-29, 72 h
T7 construct: TSC1-null
Experimental: as §1

[8] = system: T8, HCV29 TSC1+; assay: cells; parameters: cell proliferation by crystal violet staining, absorbance 540 nm; conditions: HCV-29, 72 h
T8 construct: TSC1 add-back
Experimental: as §1

[9] = system: T9, SNU886 TSC2+; assay: cells; parameters: cell proliferation by crystal violet staining, absorbance 540 nm; conditions: SNU-886, 72 h
T9 construct: TSC2 add-back
Experimental: as §1

[10] = system: T10, 705 Tsc2-; assay: cells; parameters: cell proliferation by crystal violet staining, absorbance 540 nm; conditions: 72 h
T10 construct: Tsc2-null

[11] = system: T11, 105K Tsc2-; assay: cells; parameters: cell proliferation by crystal violet staining, absorbance 540 nm; conditions: 72 h
T11 construct: Tsc2-null

[12] = system: T12, 705 TSC2+; assay: cells; parameters: cell proliferation by crystal violet staining, absorbance 540 nm; conditions: 72 h
T12 construct: TSC2 add-back

[13] = target: T13, mTOR (mTORC1 and mTORC2) (Homo sapiens, UniProt P42345); assay: immunoblot of mTORC1/mTORC2 substrate phosphorylation in cells ([…] h treatment); format: cell-based
T13 construct: endogenous mTOR in HCV29 TSC1-null cells

[14] = system: T14, TTJ Tsc2-; assay: cells; parameters: cell proliferation by crystal violet staining, absorbance 540 nm; conditions: 72 h
T14 construct: Tsc2-null

[15] = system: T15, KTP-269-3C4 Tsc1-; assay: cells; parameters: cell proliferation by crystal violet staining, absorbance 540 nm; conditions: 72 h
T15 construct: Tsc1-null

[16] = system: T16, TTJ Tsc2+; assay: cells; parameters: cell proliferation by crystal violet staining, absorbance 540 nm; conditions: 72 h
T16 construct: Tsc2 add-back

[17] = system: T17, 857T Tsc1+; assay: cells; parameters: cell proliferation by crystal violet staining, absorbance 540 nm; conditions: 72 h
T17 construct: Tsc1 wild-type

[18] = system: T18, KTP-267-2B8 Tsc1-; assay: cells; parameters: cell proliferation by crystal violet staining, absorbance 540 nm; conditions: 72 h
T18 construct: Tsc1-null

[19] = system: T19, 105K Tsc2+; assay: cells; parameters: cell proliferation by crystal violet staining, absorbance 540 nm; conditions: 72 h
T19 construct: Tsc2 add-back

CC(C)n1nc(-c2ccc3oc(N)nc3c2)c2c(N)ncnc21 [MLN0128]
IC50 [1]: 31.6 nM | IC50 [2]: 46.8 nM | IC50 [3]: 39.8 nM | IC50 [4]: 63.1 nM | IC50 [5]: 60.3 nM | IC50 [6]: 44.7 nM | IC50 [7]: 31.6 nM | IC50 [8]: 35.5 nM | IC50 [9]: 44.7 nM | IC50 [10]: 50.1 nM | IC50 [11]: 41.7 nM | IC50 [12]: 50.1 nM | immunoblot of mTORC1/mTORC2 substrate phosphorylation in cells (4 h treatment) [13]: 10 to 30 nM | IC50 [14]: 63.1 nM | IC50 [15]: 26.9 nM | IC50 [16]: 50.1 nM | IC50 [17]: 70.8 nM | IC50 [18]: 28.2 nM | IC50 [19]: 79.4 nM
